# Data from PubChem BioAssay (NCI).
#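 Each compound was tested at five concentrations against cells in 96-well plates for 48 hours. Definition used: TGI = concentration required for complete inhibition of growth.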
# Tests used:
# Assay in all cases: growth of human tumour cells (NCI), 48 h
# [1] = tested on: A549 NSCLC
# [2] = tested on: MOLT-4 leukemia
# [3] = tested on: MALME-3M melanoma
# [4] = tested on: SK-OV-3 ovarian
# [5] = tested on: HL-60(TB) leukemia
# [6] = tested on: UACC-257 melanoma
# [7] = tested on: IGROV1 ovarian
# [8] = tested on: LOX IMVI melanoma
# [9] = tested on: UACC-62 melanoma
# [10] = tested on: HCC-2998 colon
# [11] = tested on: CAKI-1 renal
# [12] = tested on: OVCAR-8 ovarian
# [13] = tested on: U251 CNS
SMILES,TGI [1],TGI [2],TGI [3],TGI [4],TGI [5],TGI [6],TGI [7],TGI [8],TGI [9],TGI [10],TGI [11],TGI [12],TGI [13]
COC(=O)C1CC2(C)C=CC1N(C(=O)OCc1ccccc1)C2 (configuration not stated),> 100 µM,> 100 µM,> 100 µM,> 100 µM,70.7 µM,> 100 µM,> 100 µM,> 100 µM,> 100 µM,> 100 µM,> 100 µM,> 100 µM,> 100 µM
COC(=O)c1ccccc1C1CN=NC12Cc1c(ccc3c1CCC3)C2=O (configuration not stated),> 100 µM,> 100 µM,> 100 µM,> 100 µM,59.3 µM,95.1 µM,> 100 µM,60.4 µM,> 100 µM,> 100 µM,> 100 µM,> 100 µM,> 100 µM
Cc1cc(S(=O)(=O)Nc2nc3ncccc3[nH]2)c(S)cc1Cl,> 100 µM,> 100 µM,> 100 µM,> 100 µM,> 100 µM,> 100 µM,> 100 µM,> 100 µM,> 100 µM,> 100 µM,> 100 µM,> 100 µM,> 100 µM
Cc1ccc(S(=O)(=O)N2C[C@@H]3CC[C@]4(CO[Si](C)(C)C(C)(C)C)N[C@@H](c5ccccc5)[C@H]2[C@H]34)cc1,> 100 µM,> 100 µM,46.3 µM,> 100 µM,> 100 µM,93.8 µM,> 100 µM,> 100 µM,> 100 µM,50.5 µM,> 100 µM,> 100 µM,> 100 µM
O=C(O)CSc1ccccc1C(=O)O,> 100 µM,> 100 µM,> 100 µM,> 100 µM,> 100 µM,34.1 µM,> 100 µM,> 100 µM,> 100 µM,46.8 µM,> 100 µM,> 100 µM,> 100 µM
CC(=O)O[C@H]1CC[C@@]2(C)C(=CC[C@@H]3[C@@H]2CC[C@]2(C)C(=N/O)/C(=C\c4ccccc4)C[C@@H]32)C1,97.5 µM,> 28.5 µM,24.7 µM,> 100 µM,49.3 µM,37.3 µM,> 100 µM,26 µM,31.9 µM,32 µM,> 100 µM,> 100 µM,> 81.5 µM
O=C(CCN1CCOCC1)/C(=C/c1ccccc1)c1ccccc1,36.6 µM,5.81 µM,8.74 µM,43.3 µM,4.19 µM,9.72 µM,22.8 µM,7.42 µM,7.52 µM,28.3 µM,16.9 µM,4.1 µM,12.9 µM
COC(=O)[C@H](Cc1c[nH]c2ccccc12)NP(=O)(OCCC#N)OCC1OC(n2cc(C)c(=O)[nH]c2=O)CC1N=[N+]=[N-] (some centres not stated),> 100 µM,> 100 µM,> 100 µM,> 100 µM,> 100 µM,> 100 µM,> 100 µM,> 100 µM,> 100 µM,> 100 µM,> 100 µM,> 100 µM,> 100 µM
Cn1cnc(N)c(N=O)c1=O,> 10 µM,> 10 µM,> 10 µM,> 10 µM,> 10 µM,> 10 µM,> 10 µM,> 10 µM,> 10 µM,> 10 µM,> 10 µM,> 10 µM,> 10 µM
O=C(O)CCC(=O)OCN1C(=O)C2C3C=CC(C2C1=O)C1C2C(=O)N(COC(=O)CCC(=O)O)C(=O)C2C31 (configuration not stated),> 100 µM,> 100 µM,> 100 µM,> 100 µM,46.7 µM,> 100 µM,> 100 µM,> 63 µM,> 100 µM,> 100 µM,> 100 µM,> 100 µM,> 100 µM
COc1cc2cc(C(=O)N3CC(COS(C)(=O)=O)c4ccc(NC(=O)OCc5ccccc5)cc43)[nH]c2c(OC)c1OC (configuration not stated),> 100 µM,> 100 µM,> 100 µM,> 100 µM,> 100 µM,> 100 µM,> 100 µM,> 100 µM,> 100 µM,> 100 µM,> 100 µM,> 100 µM,> 100 µM
O=c1[nH]nc(-c2ccccc2)n1/N=C/c1ccc([N+](=O)[O-])o1,21.9 µM,> 47.1 µM,9.38 µM,65.6 µM,> 44.4 µM,11.9 µM,16.9 µM,> 100 µM,11.2 µM,12.4 µM,28.2 µM,–,18.3 µM
C=C(C(=O)O[C@H]1C/C(C)=C/CC/C(CO)=C/[C@H]2C(=O)OC(=C)[C@H]12)C(O)CO (some centres not stated),49.8 µM,13.2 µM,10.7 µM,35.1 µM,10.4 µM,24.1 µM,39.5 µM,36 µM,31.5 µM,30.1 µM,9.1 µM,40.1 µM,27.1 µM
NNC(=O)Nc1nc2ccc(NN)cc2[nH]1,> 100 µM,32.3 µM,> 100 µM,> 100 µM,32.4 µM,88.1 µM,> 100 µM,> 100 µM,56.4 µM,41.4 µM,> 100 µM,> 100 µM,> 100 µM
CCN1C/C(=C\c2ccc(Cl)cc2)c2nc(N)c(C#N)c(-c3ccc(Cl)cc3)c2C1,> 100 µM,> 100 µM,> 100 µM,> 100 µM,> 100 µM,> 100 µM,> 100 µM,> 100 µM,> 100 µM,> 100 µM,> 100 µM,> 100 µM,> 100 µM
N#Cc1c(-c2ccc(Cl)cc2)cc(-c2ccc(Nc3ccnc4cc(Cl)ccc34)cc2)[nH]c1=O,> 100 µM,> 100 µM,> 100 µM,> 79 µM,> 100 µM,> 100 µM,> 100 µM,> 100 µM,> 100 µM,> 100 µM,> 100 µM,> 100 µM,> 61 µM
Cn1cccc1-c1ccc(-c2ccc(CO)[se]2)[se]1,> 100 µM,71.4 µM,> 100 µM,> 78.3 µM,18.9 µM,–,> 100 µM,> 70.6 µM,> 100 µM,> 68.4 µM,44.5 µM,> 100 µM,> 100 µM

SMILES,TGI [1],TGI [2],TGI [3],TGI [4],TGI [5],TGI [6],TGI [7],TGI [8],TGI [9],TGI [10],TGI [11],TGI [12],TGI [13]
O=C(Nc1sccc1S(=O)(=O)c1ccc(Cl)cc1)c1ccc(F)cc1F,> 100 µM,56.7 µM,96.4 µM,53.4 µM,> 100 µM,> 100 µM,> 100 µM,> 100 µM,86.8 µM,> 100 µM,65.9 µM,> 100 µM,45 µM
C1=C(c2ccccc2)C(N2CCOCC2)Oc2ccccc21 (configuration not stated),> 100 µM,> 100 µM,> 100 µM,> 100 µM,> 100 µM,> 100 µM,> 100 µM,> 100 µM,> 100 µM,> 100 µM,> 100 µM,> 100 µM,> 100 µM
CC(C)(C)C1CCC2c3c([nH]c4ccccc34)C3C(=O)N(c4ccc(C#N)cc4)C(=O)C3C2C1 (configuration not stated),63.5 µM,> 100 µM,37.5 µM,> 100 µM,15 µM,82.9 µM,> 100 µM,34.6 µM,–,11.1 µM,61 µM,45.6 µM,37.1 µM
N#CC1(C#N)C(C#N)(C#N)C1(C#N)C(N)=O,> 100 µM,> 100 µM,> 100 µM,> 100 µM,> 100 µM,> 100 µM,> 100 µM,> 100 µM,> 100 µM,> 100 µM,> 100 µM,> 100 µM,> 100 µM
CC(C)(C)OC(=O)N/C(C=O)=C\C1CCCCC1,> 100 µM,52 µM,70.4 µM,> 100 µM,65.4 µM,48 µM,46 µM,29.9 µM,30.7 µM,37.3 µM,46.9 µM,31.7 µM,40.3 µM
C#C[C@]1(O)CC[C@H]2[C@@H]3CCC4=C/C(=N/NC(=O)c5cccc6c(=O)c7ccccc7[nH]c56)CCC4[C@H]3CC[C@@]21C (some centres not stated),> 100 µM,> 100 µM,68.1 µM,> 100 µM,> 100 µM,> 100 µM,> 100 µM,> 100 µM,> 100 µM,> 100 µM,> 100 µM,> 100 µM,> 100 µM
CC[C@@]1(O)C(=O)OCc2c1cc1n(c2=O)Cc2c-1nc1ccc(O)cc1c2[Si](C)(C)C(C)(C)C,1.19 µM,0.106 µM,0.179 µM,> 53 µM,< 0.01 µM,0.681 µM,7.41 µM,0.163 µM,0.164 µM,0.401 µM,< 0.0137 µM,> 42.3 µM,0.0192 µM
O=C1NC(=O)c2ccccc2/C1=C/c1ccc2c(c1)OCO2,> 100 µM,> 100 µM,> 100 µM,> 100 µM,> 100 µM,55.3 µM,60.9 µM,46.4 µM,54.3 µM,38.9 µM,98.4 µM,95.1 µM,–
CC(C)(C)OC(=O)[C@@H]1CCC(=O)N1C1(c2ccccc2)c2ccccc2-c2ccccc21,> 100 µM,51.5 µM,> 100 µM,> 100 µM,61.8 µM,> 100 µM,> 100 µM,37.2 µM,> 100 µM,> 100 µM,> 100 µM,> 100 µM,73.8 µM
CCOC(=O)C1CC(C(=O)c2ccccc2)N2c3ccccc3-c3ccccc3C12 (configuration not stated),> 100 µM,> 100 µM,> 100 µM,> 100 µM,29.7 µM,> 100 µM,> 100 µM,> 100 µM,> 100 µM,> 100 µM,> 100 µM,> 100 µM,> 100 µM
CSC(=S)Nc1cc(C)cc(C)n1,> 31.6 µM,> 31.6 µM,> 31.6 µM,> 31.6 µM,> 31.6 µM,> 31.6 µM,> 100 µM,> 31.6 µM,> 31.6 µM,> 31.6 µM,> 31.6 µM,> 31.6 µM,> 31.6 µM
Nc1ccc(-c2nc3ccccc3s2)cc1Cl,> 100 µM,> 100 µM,> 100 µM,> 100 µM,> 100 µM,> 100 µM,> 100 µM,> 100 µM,> 100 µM,> 100 µM,> 100 µM,> 100 µM,> 100 µM
COc1ccccc1-n1c(=O)n(C)c(=O)n1C(C)(C)C,> 100 µM,> 100 µM,> 100 µM,> 100 µM,> 100 µM,> 100 µM,–,> 100 µM,> 100 µM,> 100 µM,> 100 µM,> 100 µM,> 100 µM
CCCCc1ccc(Nc2ncc3ncn(COCCO)c3n2)cc1,> 100 µM,53.1 µM,68.4 µM,> 100 µM,50 µM,72.5 µM,> 100 µM,39.7 µM,77.7 µM,40.7 µM,> 100 µM,> 100 µM,> 100 µM
CSC(SC)=C(C#N)C(=O)Nc1cccc(Cl)c1,> 100 µM,87.2 µM,> 100 µM,> 100 µM,35.2 µM,> 100 µM,> 100 µM,> 100 µM,> 100 µM,> 100 µM,> 100 µM,> 100 µM,> 100 µM
Fc1cccc(F)c1C1SCc2nc3cc(Cl)c(Cl)cc3n21 (configuration not stated),> 100 µM,> 100 µM,> 100 µM,> 100 µM,> 100 µM,> 100 µM,> 100 µM,> 100 µM,> 100 µM,> 100 µM,> 100 µM,> 100 µM,> 100 µM
COC(=O)C1=C(OC(=O)/C(=C/c2ccccc2)c2ccc(OC)cc2)C(C(=O)OC)[C@@]2(O)[C@@H](C(=O)OC)[C@H](C)C[C@@H]1[C@@H]2C(=O)OC (some centres not stated),> 100 µM,> 100 µM,> 100 µM,> 100 µM,> 100 µM,> 100 µM,> 100 µM,> 100 µM,> 100 µM,> 100 µM,> 100 µM,> 100 µM,> 100 µM
